Key:
[1] = Antiphlogistic effect, carrageenin paw test on rats (method of Winter); conditions: for ED50: Rattus norvegicus, po, 3 h, read-out: Antiphlogistic effect ED50 p.o.; for Therapeutic index LD50/ED50 (antiphlogistic effect): p.o., carrageenin paw test on rats, LD50 from mice
Method: The antiphlogistic effect of the novel compounds of the invention was investigated on rats by the method of Winter [J. Pharm. […] 0.1 ml of a 1 percent carrageenin suspension was injected, subcutaneously, into the plantar region of one of the hind paws. The compounds to be tested were administered orally into the animals 1 hour before the injection of the carrageenine suspension. The volume of the treated paw was measured by mercury-plethysmometer before and 3 hours after injection.

[2] = in vivo; conditions: mouse, mice, female and male, 18 to 24 g, oral
Method: The acute toxicity of the compounds of the formula I was determined on both female and male mice weighing 18 to 24 g. The compounds were administered orally.

[3] = Narcosis potentiating effect (hexobarbital sleeping time); type: in vivo, mice; conditions: for ED50: Mus musculus, read-out: Narcosis potentiating effect ED50 p.o.; for Therapeutic index LD50/ED50 (narcosis potentiating effect): p.o., hexobarbital
Method: The narcosis potentiating effect of the novel compounds of the formula I was tested on groups consisting of 6 mice each. The animals belonging to the control group received an oral dosage of 20 ml/kg of 0.9 percent aqueous sodium chloride solution, whereas the other animals were treated orally with the compound to be tested.

[4] = Analgesic effect, acetic acid writhing test on mice; conditions: for ED50: Mus musculus, po, read-out: Analgesic effect ED50 p.o.; for Therapeutic index LD50/ED50 (analgesic effect): mice, p.o., acetic acid writhing
Method: The analgesic effect was studied by means of the acetic acid writhing test on mice. After the intraperitoneal administration of 0.4 ml of 0.5 percent acetic acid, the writhing responses were counted between the fifth and tenth minutes. The writhing number was calculated as the percentage of the control value. The compounds tested were orally administered to the animals 1 hour prior to the treatment with acetic acid. […] Paracetamole and phenylbutazone were used as reference substance.

[5] = Anticonvulsive effect, inhibition of the spasm provoked by electroshock; type: in vivo, white mice; conditions: for ED50: Mus musculus, white mice, oral 1 hour prior to electroshock (45 mA, 50 Hz, 0.4 sec), read-out: Inhibition of the spasm provoked by electroshock ED50 p.o.; for Therapeutic index LD50/ED50 (electroshock): mice, p.o.
Source text: The anticonvulsive effect of the novel compounds was studied on white mice weighing 20 to 25 g through the inhibition of the spasm developed by electroshock. The electroshock was provoked by means of corneal electrodes with a current intensity of 45 mA. The frequency of the current used was equivalent to 50 Hz, and the duration of each electroshock was 0.4 sec. The complete inhibition of the tonic extension of the hind limbs was taken as criterium of the anticonvulsive effect. The compounds to be tested were administered orally 1 hour prior to the electroshock.

[6] = Anticonvulsive effect, inhibition of spasms provoked by pentamethylenetetrazole; type: in vivo, white mice; conditions: for ED50: Mus musculus, white mice, oral 1 hour before pentamethylenetetrazole 125 mg/kg i.p., read-out: Inhibition of spasms provoked by pentamethylenetetrazole ED50 p.o.; for Therapeutic index LD50/ED50 (pentamethylenetetrazole): mice, p.o.
Method: The anticonvulsive effect of the compounds was also studied through the inhibition of the spasm provoked by pentamethylenetetrazole [6,7,8,9-tetrahydro-5H-tetrazoloazepine]. 125 mg/kg doses of pentamethylenetetrazole were administered intraperitoneally into white mice divided into groups consisting of 6 animals and the tonic extension spasms of the hind limbs were registered. The compounds to be tested were administered orally 1 hour before the injection of pentamethylenetetrazole.

[7] = Tetrabenazine antagonism; type: in vivo; conditions: for ED50: Mus musculus, oral 30 minutes before tetrabenazine 50 mg/kg i.p., counts at 30, 60, 90 and 120 minutes, read-out: Tetrabenazine antagonism ED50 p.o.; for Therapeutic index LD50/ED50 (tetrabenazine antagonism): p.o.
Method: The tetrabenazine antagonizing effect of the novel compounds was tested on groups consisting of 10 mice each. The animals belonging to the control group received an oral dosage of 20 ml/kg of 0.9 percent aqueous sodium chloride solution, whereas the other animals were treated orally with the compound to be tested. 30 minutes after the introduction of the active agent or the vehicle, 50 mg/kg of tetrabenazine [3-isobutyl-9,10-dimethoxy-1,2,3,4,6,7-hexahydrobenzo[a]quinolizine-2-one]were administered intraperitoneally. The animals with closed palpebral fissures were counted 30, 60, 90 and 120 minutes after the administration of tetrabenazine. The data obtained in the individual measuring times were added, and the percentage inhibition related to the controls was calculated. Amitriptylin was employed as reference compound.

[8] = mice, oral 1 hour before hexobarbital 40 mg/kg i.v., 150 percent prolongation of sleeping time = positive response

In the case of `CCCCCC1=Nc2cnc3ccccc3c2N(C(C)=O)N1` [Example 1, 1-acetyl-3-amyl-1,2-dihydro-as-triazino[5,6-c]quinoline], the ED50 [1] is reported as 100 mg/kg, the “Therapeutic index LD50/ED50 (antiphlogistic effect)” value [1] is reported as 20 and the LD50 [2] is reported as 2000 mg/kg. The ED50 [3, 8] was 200 mg/kg, the “Therapeutic index LD50/ED50 (narcosis potentiating effect)” value ([3]; mice) was 10 and the ED50 [4] was 125 mg/kg. The “Therapeutic index LD50/ED50 (analgesic effect)” value [4] was 16.
In the case of `CC(=O)N1C(c2ccccc2)=NNc2c1cnc1ccccc21` [Example 3, 4-Acetyl-3-phenyl-1,4-dihydro-as-triazino[5,6-c]quinoline], the LD50 [2] is reported as 2000 mg/kg, the ED50 [3, 8] is reported as 150 mg/kg and the “Therapeutic index LD50/ED50 (narcosis potentiating effect)” value ([3]; mice) is reported as 13.3.
For `CCCCC1=Nc2cnc3ccccc3c2N(C(C)=O)N1` [Example 6, 1-Acetyl-3-butyl-1,2-dihydro-as-triazino[5,6-c]quinoline], the ED50 [1] was 36 mg/kg, the “Therapeutic index LD50/ED50 (antiphlogistic effect)” value [1] was 55 and the LD50 [2] was 2000 mg/kg. For the same molecule, the ED50 [5] was 160 mg/kg, the “Therapeutic index LD50/ED50 (electroshock)” value [5] was 12.5 and the ED50 [3, 8] was 125 mg/kg. The “Therapeutic index LD50/ED50 (narcosis potentiating effect)” value ([3]; mice) was 16, the ED50 [6] was 90 mg/kg and the “Therapeutic index LD50/ED50 (pentamethylenetetrazole)” value [6] was 22,2. For the same molecule, the ED50 [4] was 320 mg/kg and the “Therapeutic index LD50/ED50 (analgesic effect)” value [4] was 6.
With `CCCCCCCCC1=Nc2cnc3ccccc3c2N(C(C)=O)N1` [Example 7, 1-Acetyl-3-octyl-1,2-dihydro-as-triazino[5,6-c]quinoline] the LD50 [2] was 2000 mg/kg, the ED50 [5] was 450 mg/kg and the “Therapeutic index LD50/ED50 (electroshock)” value [5] was 4.4. The ED50 [6] was 350 mg/kg and the “Therapeutic index LD50/ED50 (pentamethylenetetrazole)” value [6] was 5,7.
For `CC(=O)N1NC(CC(C)C)=Nc2cnc3ccccc3c21` [Example 8, 1-Acetyl-3-isobutyl-1,2-dihydro-as-triazino[5,6-c]quinoline], the LD50 [2] was 2000 mg/kg, the ED50 [5] was 200 mg/kg and the “Therapeutic index LD50/ED50 (electroshock)” value [5] was 10. The ED50 [3, 8] was 70 mg/kg, the “Therapeutic index LD50/ED50 (narcosis potentiating effect)” value ([3]; mice) was 28.5 and the ED50 [6] was 72 mg/kg. For the same molecule, the “Therapeutic index LD50/ED50 (pentamethylenetetrazole)” value [6] was 27,8, the ED50 [7] was 20 mg/kg and the “Therapeutic index LD50/ED50 (tetrabenazine antagonism)” value [7] was 100.
With `CC(=O)N1NC(C(C)(C)C)=Nc2cnc3ccccc3c21` [Example 9, 1-Acetyl-3-tert.-butyl-1,2-dihydro-as-triazino[5,6-c]quinoline] the LD50 [2] was 2000 mg/kg, the ED50 [6] was 165 mg/kg and the “Therapeutic index LD50/ED50 (pentamethylenetetrazole)” value [6] was 12.
For `CC(=O)N1NC(CCC(C)C)=Nc2cnc3ccccc3c21` [Example 10, 1-Acetyl-3-(3'-methyl-1'-butyl)-1,2-dihydro-as-triazino[5,6-c]quinoline], the ED50 [1] was 200 mg/kg, the “Therapeutic index LD50/ED50 (antiphlogistic effect)” value [1] was 10 and the LD50 [2] was 2000 mg/kg. The ED50 [3, 8] was 100 mg/kg, the “Therapeutic index LD50/ED50 (narcosis potentiating effect)” value ([3]; mice) was 20 and the ED50 [7] was 14.5 mg/kg. The “Therapeutic index LD50/ED50 (tetrabenazine antagonism)” value [7] was 138, the ED50 [4] was 100 mg/kg and the “Therapeutic index LD50/ED50 (analgesic effect)” value [4] was 20.
In the case of `CCC(CC)C1=Nc2cnc3ccccc3c2N(C(C)=O)N1` [Example 11, 1-Acetyl-3-[1'-ethyl-1'-propyl]-1,2-dihydro-as-triazino[5,6-c]quinoline], the ED50 [7] is reported as 54 mg/kg and the “Therapeutic index LD50/ED50 (tetrabenazine antagonism)” value [7] is reported as 37.
In the case of `CN(C)CCC=C1c2ccccc2CCc2ccccc21` [amitriptylin, 5-(3-dimethylaminopropylidene)-10,11-dihydro-5H-dibenzo[a,d]cycloheptene, reference compound], the ED50 [7] is reported as 12 mg/kg and the “Therapeutic index LD50/ED50 (tetrabenazine antagonism)” value [7] is reported as 19.
In the case of `CCCC(C)(COC(N)=O)COC(N)=O` [meprobamate, 2-methyl-2-propylpropane-1,3-diol dicarbamate, reference compound], the ED50 ([3]; po) is reported as 260 mg/kg and the “Therapeutic index LD50/ED50 (narcosis potentiating effect)” value ([3]; mice) is reported as 4.2.
In the case of `CC(=O)Nc1ccc(O)cc1` [paracetamole, p-hydroxyacetanilide, reference compound], the LD50 [2] is reported as 540 mg/kg, the ED50 [4] is reported as 180 mg/kg and the “Therapeutic index LD50/ED50 (analgesic effect)” value [4] is reported as 3.
`CCCCC1C(=O)N(c2ccccc2)N(c2ccccc2)C1=O` [phenylbutazone, 4-butyl-1,2-diphenylpyrazolidine-3,5-dione, reference compound] showed an ED50 [1] of 100 mg/kg and an ED50 [4] of 60 mg/kg.
With `CN1C(=O)OC(C)(C)C1=O` [trimethadione, 3,5,5-trimethyloxazolidine-2,4-dione, reference compound] the LD50 [2] was 2050 mg/kg, the ED50 [5] was 400 mg/kg and the “Therapeutic index LD50/ED50 (electroshock)” value [5] was 5.3. For the same molecule, the ED50 [6] was 490 mg/kg and the “Therapeutic index LD50/ED50 (pentamethylenetetrazole)” value [6] was 4,3.

Reference: patent publication US4342766A, “Novel dihydro-as-triazino[5,6-c]quinoline derivatives and a process for the preparation thereof” (priority 1980, dated 1982)
